The structures appear in SMILES notation. A value given as a limit tells only on which side of the number the result lay.

This test addresses T1, human DP2 receptor (Homo sapiens, UniProt Q9Y5Y4).
T1 construct: expressed in transfected cells; host or cells: CHO-K1 FLP-In (Invitrogen, catalog no. R758-07), stably transfected
T1 sequence (Q9Y5Y4 1-395): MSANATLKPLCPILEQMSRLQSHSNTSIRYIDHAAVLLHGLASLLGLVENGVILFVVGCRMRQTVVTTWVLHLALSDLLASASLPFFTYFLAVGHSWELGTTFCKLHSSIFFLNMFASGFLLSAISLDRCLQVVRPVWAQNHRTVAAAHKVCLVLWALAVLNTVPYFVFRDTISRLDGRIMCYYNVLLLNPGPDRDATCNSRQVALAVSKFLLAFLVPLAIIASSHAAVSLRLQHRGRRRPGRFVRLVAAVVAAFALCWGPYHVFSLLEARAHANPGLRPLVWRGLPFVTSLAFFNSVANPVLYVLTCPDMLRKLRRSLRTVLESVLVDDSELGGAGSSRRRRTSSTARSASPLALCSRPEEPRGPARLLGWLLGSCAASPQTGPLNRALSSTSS
Briefly: Prostaglandin D2 binding inhibition assay (scintillation proximity assay, 3H PGD2, membranes of transfected CHO cells). Particulars: SPA, 5.5 nM 3H PGD2, CHO-K1 FLP-In human DP2 membranes; upper limit determinable 30 μM; read-out: IC50 ranges for inhibition of PGD2 binding to human DP2. How it is done:
The ability of compounds to inhibit binding of prostaglandin D2 (PGD2) to the human DP2 receptor was measured using a scintillation proximity assay (SPA). Chinese Hamster Ovary FLP-In cell lines (CHO-K1 FLP-In, Invitrogen, catalog no. R758-07) were stably transfected with the human DP2 gene (Genebank: AY507142). Cell lines were grown in suspension in EX-CELL 302 CHO Serum-free medium (Sigma, catalog no. 14324C) supplemented with 1% Fetal Bovine Serum (Invitrogen no. 10099-141), 2 mM L-glutamine (Invitrogen, catalog no. 25030-081) and 0.5 mg/ml Hygromycin B (Invitrogen, catalog no. 10687-010). Cells were collected by centrifugation in a Beckman Coulter Allegra X-12R centrifuge at 150×g for 5 minutes at room temperature.
Membranes from transfected cells were isolated for binding assays. Cell pellets containing approximately 2×10^9 cells were resuspended in 35 ml of cold membrane homogenization buffer (10 mM Tris (Sigma, catalog no. T2663), 1 mM EDTA (Fluka BioChemika no. 03690), and 70 μl of protease inhibitor cocktail (Sigma, catalog no. P8340)). Cells were homogenized with 30 strokes of a dounce homogenizer (Kontes, catalog no. 885303-0040), and the solution centrifuged at 200×g for 10 minutes. The supernatant was transferred to a 50 ml Oakridge tube (Beckman, catalog no. 357000) and centrifuged in a Beckman Coulter Avanti J-26×PI centrifuge with a JA30.50 rotor at 81,000×g for 1 hour at 15° C. The pellet was resuspended in membrane storage buffer (50 mM Tris (Sigma, catalog no. T2663), 2.5 mM EDTA (Fluka BioChemika no. 03690), 5 mM magnesium chloride (Sigma, catalog no. M1028), 100 mg/ml sucrose (Sigma, catalog no. 50389) and a 1:500 dilution of protease inhibitor cocktail (Sigma, catalog no. P8340)) and the total protein was quantitated using a BCA protein measurement kit (Pierce, catalog no. 23225). Aliquots were frozen at −80° C. until used. Compounds were tested for their ability to inhibit PGD2 binding to the purified membranes. 5 μg of the purified membranes, 0.25 mg of wheat germ agglutinin PVT SPA beads (GE Healthcare, catalog no. RPNQ0060) and 5.5 nM of ^3H PGD2 (PerkinElmer, catalog no. NET-616) were mixed in assay buffer ((50 mM Tris (Sigma, catalog no. T2663), 10 mM magnesium chloride (Sigma, catalog no. M1028), 100 mM sodium chloride (Sigma, catalog no. S6546) and 0.1% bovine serum albumin (Sigma, catalog no. A2153)). Using a Multidrop bulk dispenser, 75 μl of the assay mixture was dispensed in Optiplates (PerkinElmer, catalog no. 6007299) containing the compounds to be tested. After a 60 minute incubation period at room temperature, the plates were read on a PerkinElmer Topcount NXT HTS, and individual wells were quantitated as counts per minute (CPM). Data were expressed as a percent of the difference between the maximum and minimum responses. IC50 values (the concentration of compound producing 50% of the maximal response) were determined using a two-parameter non-linear regression algorithm analyzed using CambridgeSoft Bioassay software. Table 2 gives the range of IC50 values for claimed compounds in the binding assay.
Background: SPA uses beads or plates that emit light when radiolabelled molecules are held near them.
Turning to `CS(=O)(=O)c1cccc(S(=O)(=O)N2CCC(n3c(=O)n(CC(=O)O)c4cccnc43)CC2)c1` [Compound 66, 2-(3-(1-(3-(methylsulfonyl)phenyl-sulfonyl)piperidin-4-yl)-2-oxo-2,3-dihydro-1H-imidazo[4,5-b]pyridin-1-yl)acetic acid], the 50% inhibitory concentration (IC50) (usually the concentration at which inhibition is half-maximal) lay within 1000 to 10000 nM. For `O=C(O)Cn1c(=O)n(C2CCN(S(=O)(=O)c3ccccc3[N+](=O)[O-])CC2)c2ncccc21` [Compound 67, 2-(3-(1-(2-nitrophenylsulfonyl)piperidin-4-yl)-2-oxo-2,3-dihydro-1H-imidazo[4,5-b]pyridin-1-yl)acetic acid], the half-maximal inhibitory concentration (IC50) is under 1000 nM. In the case of `O=C(O)Cn1c(=O)n(C2CCN(S(=O)(=O)c3cccnc3)CC2)c2ncccc21` [Compound 68, 2-(2-oxo-3-(1-(pyridin-3-ylsulfonyl)piperidin-4-yl)-2,3-dihydro-1H-imidazo[4,5-b]pyridin-1-yl)acetic acid] it was 10000 to 30000 nM.

In the case of `N#Cc1cccc(S(=O)(=O)N2CCC(n3c(=O)n(CC(=O)O)c4cccnc43)CC2)c1` [Compound 69, 2-(3-(1-(3-cyanophenylsuIfonyl)piperidin-4-yl)-2-oxo-2,3-dihydro-1H-imidazo[4,5-b]pyridin-1-yl)acetic acid], the half-maximal inhibitory concentration (IC50) fell in the range of 1000 to 10000 nM. To `N#Cc1ccccc1S(=O)(=O)N1CCC(n2c(=O)n(CC(=O)O)c3cccnc32)CC1` [Compound 70, 2-(3-(1-(2-cyanophenylsulfonyl)piperidin-4-yl)-2-oxo-2,3-dihydro-1H-imidazo[4,5-b]pyridin-1-yl)acetic acid] belongs under 1000 nM; to `O=C(O)Cn1c(=O)n(C2CCN(S(=O)(=O)c3ccc(Cl)cc3F)CC2)c2ncc(F)cc21` [Compound 71, 2-(3-(1-(4-chloro-2-fluorophenyl-sulfonyl)piperidin-4-yl)-6-fluoro-2-oxo-2,3-dihydro-1H-imidazo[4,5-b]pyridin-1-yl)acetic acid], 1000 to 10000 nM. In the case of `O=C(O)Cn1c(=O)n(C2CCN(S(=O)(=O)c3cccc4cccnc34)CC2)c2ncc(F)cc21` [Compound 72, 2-(6-fluoro-2-oxo-3-(1-(quinolin-8-ylsulfonyl)piperidin-4-yl)-2,3-dihydro-1H-imidazo[4,5-b]pyridin-1-yl)acetic acid] it was 1000 to 10000 nM; in that of `CC(C)Oc1ccc(S(=O)(=O)N2CCC(n3c(=O)n(CC(=O)O)c4cc(F)cnc43)CC2)cc1` [Compound 73, 2-(6-fluoro-3-(1-(4-isopropoxyphenyl-sulfonyl)piperidin-4-yl)-2-oxo-2,3-dihydro-1H-imidazo[4,5-b]pyridin-1-yl)acetic acid], 10000 to 30000 nM. For the compound `CS(=O)(=O)c1ccccc1S(=O)(=O)N1CCC(n2c(=O)n(CC(=O)O)c3cc(F)cnc32)CC1` [Compound 74, 2-(6-fluoro-3-(1-(2-(methylsulfonyl)phenylsulfonyl)piperidin-4-yl)-2-oxo-2,3-dihydro-1H-imidazo[4,5-b]pyridin-1-yl)acetic acid], the IC50 is under 1000 nM. On to `CC(C)Oc1ccc(S(=O)(=O)N2CCC(n3c(=O)n(CC(=O)O)c4cccnc43)CC2)cc1` [Compound 75, 2-(3-(1-(4-isopropoxyphenylsulfonyl)piperidin-4-yl)-2-oxo-2,3-dihydro-1H-imidazo[4,5-b]pyridin-1-yl)acetic acid], for which the IC50 was over 30000 nM. In the case of `Cc1cc(S(=O)(=O)N2CCC(n3c(=O)n(CC(=O)O)c4cccnc43)CC2)c(C)s1` [Compound 76, 2-(3-(1-(2,5-dimethylthiophen-3-ylsulfonyl)piperidin-4-yl)-2-oxo-2,3-dihydro-1H-imidazo[4,5-b]pyridin-1-yl)acetic acid] it was 1000 to 10000 nM; in that of `O=C(O)Cn1c(=O)n(C2CCN(S(=O)(=O)c3ccc(Oc4ccccc4)cc3)CC2)c2ncccc21` [Compound 77, 2-(2-oxo-3-(1-(4-phenoxyphenyl-sulfonyl)piperidin-4-yl)-2,3-dihydro-1H-imidazo[4,5-b]pyridin-1-yl)acetic acid], 1000 to 10000 nM; in that of `COc1cccc(S(=O)(=O)N2CCC(n3c(=O)n(CC(=O)O)c4cccnc43)CC2)c1` [Compound 78, 2-(3-(1-(3-methoxyphenyl-sulfonyl)piperidin-4-yl)-2-oxo-2,3-dihydro-1H-imidazo[4,5-b]pyridin-1-yl)acetic acid], 1000 to 10000 nM. Turning to `O=C(O)Cn1c(=O)n(C2CCN(S(=O)(=O)c3ccccc3)CC2)c2ncccc21` [Compound 79, 2-(2-oxo-3-(1-(phenylsulfonyl)piperidin-4-yl)-2,3-dihydro-1H-imidazo[4,5-b]pyridin-1-yl)acetic acid], the concentration for half-maximal inhibition (IC50) fell in the range of 1000 to 10000 nM.

As for `O=C(O)Cn1c(=O)n(C2CCN(S(=O)(=O)c3ccc(Cl)s3)CC2)c2ncccc21` [Compound 80, 2-(3-(1-(5-chlorothiophen-2-yl-sulfonyl)piperidin-4-yl)-2-oxo-2,3-dihydro-1H-imidazo[4,5-b]pyridin-1-yl)acetic acid], the half-maximal inhibitory concentration (IC50) was 1000 to 10000 nM. In the case of `O=C(O)Cn1c(=O)n(C2CCN(S(=O)(=O)c3ccc(-c4ccccc4)cc3)CC2)c2ncccc21` [Compound 81, 2-(3-(1-(biphenyl-4-ylsulfonyl)piperidin-4-yl)-2-oxo-2,3-dihydro-1H-imidazo[4,5-b]pyridin-1-yl)acetic acid] it was 1000 to 10000 nM; in that of `O=C(O)Cn1c(=O)n(C2CCN(S(=O)(=O)c3cc(Cl)ccc3Cl)CC2)c2ncccc21` [Compound 82, 2-(3-(1-(2,5-dichlorophenylsulfonyl)piperidin-4-yl)-2-oxo-2,3-dihydro-1H-imidazo[4,5-b]pyridin-1-yl)acetic acid], under 1000 nM. Consider `O=C(O)Cn1c(=O)n(C2CCN(S(=O)(=O)c3cc(F)c(Br)cc3F)CC2)c2ncccc21` [Compound 83, 2-(3-(1-(4-bromo-2,5-difluorophenyl-sulfonyl)piperidin-4-yl)-2-oxo-2,3-dihydro-1H-imidazo[4,5-b]pyridin-1-yl)acetic acid], for which the IC50 is under 1000 nM. In the case of `O=C(O)Cn1c(=O)n(C2CCN(S(=O)(=O)c3cc(Cl)cc(Cl)c3)CC2)c2ncccc21` [Compound 84, 2-(3-(1-(3,5-dichlorophenyl-sulfonyl)piperidin-4-yl)-2-oxo-2,3-dihydro-1H-imidazo[4,5-b]pyridin-1-yl)acetic acid] it was 1000 to 10000 nM; in that of `O=C(O)Cn1c(=O)n(C2CCN(S(=O)(=O)c3ccccc3C(F)(F)F)CC2)c2ncccc21` [Compound 85, 2-(2-oxo-3-(1-(2-(trifluoromethyl)phenylsulfonyl)piperidin-4-yl)-2,3-dihydro-1H-imidazo[4,5-b]pyridin-1-yl)acetic acid], under 1000 nM; in that of `O=C(O)Cn1c(=O)n(C2CCN(S(=O)(=O)c3cc(Cl)c(F)cc3F)CC2)c2ncccc21` [Compound 86, 2-(3-(1-(5-chloro-2,4-difluorophenyl-sulfonyl)piperidin-4-yl)-2-oxo-2,3-dihydro-1H-imidazo[4,5-b]pyridin-1-yl)acetic acid], under 1000 nM.

Consider `O=C(O)Cn1c(=O)n(C2CCN(S(=O)(=O)c3ccc(Br)cc3F)CC2)c2ncccc21` [Compound 87, 2-(3-(1-(4-bromo-2-fluorophenyl-sulfonyl)piperidin-4-yl)-2-oxo-2,3-dihydro-1H-imidazo[4,5-b]pyridin-1-yl)acetic acid], for which the 50% inhibitory concentration (IC50) is under 1000 nM.

The values above are taken from patent US20110190336A1, “AZABENZIMIDAZOLONES” (CARA THERAPEUTICS, INC., priority 2008, published 2011).
